From patent publication US6747027B1, “Thiol sulfonamide metalloprotease inhibitors” (Pharmacia Corporation, priority 1996, dated 2004) come the findings set out here.

Where a name gives a salt, the structure may show the parent alone. Where only a bound is given, the exact number is not on record here.

One assay deals with T1, recombinant human MMP-1 (Homo sapiens, UniProt P03956).
T1 construct: made in house; host or cells: transfected HT-1080 cells (provided by Dr. Howard Welgus, Washington University)
T1 sequence (P03956 100-469): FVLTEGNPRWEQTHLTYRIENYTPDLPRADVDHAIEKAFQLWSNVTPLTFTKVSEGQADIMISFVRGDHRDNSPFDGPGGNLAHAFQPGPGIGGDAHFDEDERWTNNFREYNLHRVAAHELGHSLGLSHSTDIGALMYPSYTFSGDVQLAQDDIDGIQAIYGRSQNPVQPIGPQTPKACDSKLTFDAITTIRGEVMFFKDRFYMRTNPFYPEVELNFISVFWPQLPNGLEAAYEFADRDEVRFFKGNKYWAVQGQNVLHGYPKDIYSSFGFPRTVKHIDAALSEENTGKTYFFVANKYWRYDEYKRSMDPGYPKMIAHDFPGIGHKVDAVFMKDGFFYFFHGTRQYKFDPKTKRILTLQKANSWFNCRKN
Nature of the assay: In vitro metalloprotease inhibition, fluorogenic peptide assay (MMP-1). In kind it is biochemical. As to conditions: recombinant human MMP-1, APMA activated; fluorogenic MCA peptide substrate 4 uM; pH 7.5, room temperature. As for the experimental part:
(§1) Certain of the compounds prepared in the manner described in Examples 1 to 223 were tested for activity by an in vitro assay. Following the procedures of Knight et al., FEBS Lett. 296(3):263 (1992). Briefly, 4-aminophenylmercuric acetate (APMA) or trypsin activated MMPs were incubated with various concentrations of the inhibitor compound at room temperature for 5 minutes (0.02% 2-mercapto-ethanol added to buffer for thiol compounds with 5 minutes or overnight incubation). More specifically, recombinant human MMP-13 and MMP-1 enzymes were prepared in laboratories of the inventors' employer. MMP-13 was expressed in baculovirus as a proenzyme, and purified first over a heparin agarose column and then over a chelating zinc chloride column. The proenzyme was activated by APMA for use in the assay. MMP-1 expressed in transfected HT-1080 was provided by Dr. Howard Welgus of Washington University, St. Louis, Mo. The enzyme was also activated using APMA and was then purified over a hydroxamic acid column.
(§2) The enzyme substrate is a methoxycoumarin-containing polypeptide having the following sequence:
(§3) MCA-ProLeuGlyLeuDpaAlaArgNH^2, wherein MCA is methoxycoumarin and Dpa is 3-(2,4-dinitrophenyl)-L-2,3-diaminopropionyl alanine. This substrate is commercially available from Baychem as product M-1895.
(§4) The buffer used for assays contained 100 mM Tris-HCl, 100 mM NaCl, 10 mM CaCl2 and 0.05 percent polyethyleneglycol(23) lauryl ether at a pH value of 7.5. Assays were carried out at room temperature, and dimethyl sulfoxide (DMSO) at a final concentration of 1 percent was used to dissolve inhibitor compound.
(§5) The assayed inhibitor compound in DMSO/buffer solution was compared to an equal amount of DMSO/buffer with no inhibitor as control using microfluor™ white plates (Dynatech). The inhibitor or control solution was maintained in the plate for 10 minutes and the substrate was added to provide a final concentration of 4 uM.
(§6) In the absence of inhibitor activity, a fluorogenic peptide is cleaved at the gly-leu peptide bond, separating the highly fluorogenic peptide from a 2.4-dinitrophenyl quencher, resulting in an increase of fluorescence intensity (excitation at 328 nm/emmision at 415 nm). Inhibition was measured as a reduction in fluorescent intensity as a function of inhibitor concentration, using a Perkin Elmer L550 plate reader. The IC50 values were calculated from those values. The results are set forth in the Inhibition Table below, reported in terms of IC50 to three significant figures.

A further assay addresses T2, recombinant human MMP-13 (Homo sapiens, UniProt P45452).
T2 construct: made in house
As to the kind of experiment: In vitro metalloprotease inhibition, fluorogenic peptide assay (MMP-13). It is filed as biochemical. As to conditions: recombinant human MMP-13, APMA activated; fluorogenic MCA peptide substrate 4 uM; pH 7.5, room temperature. On the procedure:
as §1, §2, §3, §4, §5, §6

Consider `C[C@H](CS)N(C)S(=O)(=O)c1ccc(-c2ccccc2)cc1` [Example 55, N-(2-Mercapto-1R-methylethyl)-N-methyl-4-(phenyl)benzenesulfonamide], for which the results for the half-maximal inhibitory concentration (IC50) on recombinant human MMP-1 and on recombinant human MMP-13 were 0.313 µM and 0.00071 µM, respectively.

Take `COc1ccc(S(=O)(=O)N(Cc2ccccc2)C(CS)Cc2ccccc2)cc1` (stereo not drawn) [Example 57, N-(2-Mercapto-1R,S-phenylmethyl)-N-phenylmethyl-4-methoxybenzenesulfonamide]: the concentration for half-maximal inhibition (IC50) was more than 10 µM at recombinant human MMP-1 and 5 µM at recombinant human MMP-13.

As for `COC(=O)[C@H](CSSC[C@H](NS(=O)(=O)c1ccc(OC)cc1)C(=O)OC)NS(=O)(=O)c1ccc(OC)cc1` [Example 58], the IC50 on recombinant human MMP-1 amounted to 6 µM; at recombinant human MMP-13, 0.2 µM.

Consider `COC(=O)[C@H](CSSC[C@@H](C(=O)OC)N(C)S(=O)(=O)c1ccc(OC)cc1)N(C)S(=O)(=O)c1ccc(OC)cc1` [Example 59], for which the IC50 at recombinant human MMP-1 was found to be 1 µM; on recombinant human MMP-13, 0.013 µM.

As for `C[C@H](CS)NS(=O)(=O)c1ccc(F)cc1` [Example 63, N-(2-mercapto-1R-methylethyl)-4-fluorobenzenesulfonamide], the IC50 stood at 0.3 µM on recombinant human MMP-1 and 2.5 µM at recombinant human MMP-13.

On to `C[C@H](CS)NS(=O)(=O)c1ccc(Br)cc1` [Example 65, N-(2-mercapto-1R-methylethyl)-4-bromobenzenesulfonamide], for which the figures for the IC50 at recombinant human MMP-1 and at recombinant human MMP-13 were 1 µM and 0.445 µM, respectively.

`C[C@H](CS)NS(=O)(=O)c1ccc(OC(F)(F)F)cc1` [Example 75, N-(2-mercapto-1R-methylethyl)-4-(trifluoromethoxy)-benzenesulfonamide]: the 50% inhibitory concentration (IC50) on recombinant human MMP-1 amounted to 5 µM; at recombinant human MMP-13, 1 µM.

In the case of `C[C@H](CS)NS(=O)(=O)c1ccc(C#N)cc1` [Example 76, N-(2-mercapto-1R-methylethyl)-4-cyanobenzenesulfonamide], the results for the half-maximal inhibitory concentration (IC50) on recombinant human MMP-1 and on recombinant human MMP-13 were 3.5 µM and 8.8 µM, respectively.

As to `C[C@H](CS)NS(=O)(=O)c1ccccc1` [Example 82, N-(2-mercapto-1R-methylethyl)-benzenesulfonamide], the IC50 at recombinant human MMP-1 was more than 10 µM; on recombinant human MMP-13 it was 1.2 µM.

With `CC(=O)Nc1ccc(S(=O)(=O)N[C@H](C)CS)cc1` [Example 84, N-(2-mercapto-1R-methylethyl)-4-N-acetylsulfanilamide], the IC50 on recombinant human MMP-1 and on recombinant human MMP-13 was more than 10 µM in each case.

Regarding `C[C@H](CS)NS(=O)(=O)c1ccc(N=Nc2ccccc2)cc1` [Example 89, N-(2-mercapto-1R-methylethyl)-4-phenylazobenzenesulfonamide], the results for the half-inhibitory concentration (IC50) on recombinant human MMP-1 and on recombinant human MMP-13 were more than 10 µM and 0.09 µM, respectively.

For `C[C@H](CS)N(CCN1CCCCC1)S(=O)(=O)c1ccc(Sc2ccccc2)cc1` [Example 92D, N-(2-Mercapto-1R-methylethyl)-N-[2-(1-piperidino)ethyl]-4-(thiophenyl)benzenesulfonamide Hydrochloride], the values for the IC50 at recombinant human MMP-1 and at recombinant human MMP-13 were 6 µM and 0.0007 µM, respectively.

Turning to `NC(=O)[C@H](CS)NS(=O)(=O)c1ccc(I)cc1` [Example 95, N-(4-Iodophenyl)sulfonyl-L-cysteine-NH2], the IC50 was found to be 0.8 µM on recombinant human MMP-1 and 0.02 µM at recombinant human MMP-13.

On to `CCCCCc1ccc(S(=O)(=O)N[C@@H](CS)C(N)=O)cc1` [Example 96, N-[4-(n-Pentyl)-phenyl]sulfonyl-L-cysteine-NH2], for which the values for the 50% inhibitory concentration (IC50) at recombinant human MMP-1 and on recombinant human MMP-13 were more than 10 µM and 0.017 µM, respectively.

Regarding `CCCCN([C@H](C)CS)S(=O)(=O)c1ccc(OC)cc1` [Example 99], the results for the half-maximal inhibitory concentration (IC50) on recombinant human MMP-1 and at recombinant human MMP-13 were 0.9 µM and 0.0313 µM, respectively.

As for `COc1ccc(S(=O)(=O)N[C@H](C)CS)cc1OC` [Example 100], the IC50 at recombinant human MMP-1 and on recombinant human MMP-13 was more than 10 µM throughout.

In the case of `C[C@H](CS)NS(=O)(=O)c1ccc(Sc2ccccc2)cc1` [Example 101], the IC50 at recombinant human MMP-1 is more than 10 µM; on recombinant human MMP-13, 0.03 µM.

Take `C[C@H](CS)N(CC(=O)O)S(=O)(=O)c1ccc(Sc2ccccc2)cc1` [Example 103]: the values for the half-inhibitory concentration (IC50) on recombinant human MMP-1 and at recombinant human MMP-13 were more than 10 µM and 0.017 µM, respectively.

Turning to `CCCCOc1ccc(S(=O)(=O)N(CCN2CCOCC2)[C@H](C)CS)cc1` [Example 107], the 50% inhibitory concentration (IC50) at recombinant human MMP-1 is 4 µM; on recombinant human MMP-13, 0.0027 µM.

For `CCCCOc1ccc(S(=O)(=O)NC(CO)CS)cc1` (stereo not drawn) [Example 110], the half-inhibitory concentration (IC50) is more than 10 µM at recombinant human MMP-1 and 1.6 µM on recombinant human MMP-13.

With `COc1ccc(S(=O)(=O)N(Cc2ncc[nH]2)[C@H](C)CS)cc1` [Example 111], the IC50 at recombinant human MMP-1 came to 2 µM; on recombinant human MMP-13, 0.04 µM.

Take `COc1ccc(S(=O)(=O)N(Cc2ccsc2)[C@H](C)CS)cc1` [Example 112]: the results for the half-maximal inhibitory concentration (IC50) on recombinant human MMP-1 and on recombinant human MMP-13 were 4 µM and 0.15 µM, respectively.

As to `C[C@H](CS)N(CCN1CCOCC1)S(=O)(=O)c1ccc(Oc2ccccc2)cc1` [Example 113], the IC50 worked out at 0.125 µM on recombinant human MMP-1 and 0.00025 µM on recombinant human MMP-13.

On to `COCCOc1ccc(S(=O)(=O)N(CCN2CCOCC2)[C@H](C)CS)cc1` [Example 114], for which the IC50 was more than 10 µM on recombinant human MMP-1 and 0.045 µM at recombinant human MMP-13.

Turning to `CC(=O)SC[C@@H](C)N(CCN1CCOCC1)S(=O)(=O)c1ccc(Oc2ccc(CCC(=O)OC(C)(C)C)cc2)cc1` [Example 115], the IC50 at recombinant human MMP-1 was more than 10 µM; on recombinant human MMP-13, 0.22 µM.

Turning to `C[C@H](CS)N(CCN1CCOCC1)S(=O)(=O)c1ccc(Oc2ccc(CCC(=O)O)cc2)cc1` [Example 117], the IC50 at recombinant human MMP-1 is 8 µM; on recombinant human MMP-13 it was 0.015 µM.

Turning to `C[C@H](CS)N(CCN1CCOCC1)S(=O)(=O)c1ccc(Oc2ccc(CCC(=O)O)cc2)cc1` [Example 118], the figures for the IC50 at recombinant human MMP-1 and at recombinant human MMP-13 were 7 µM and 0.014 µM, respectively.

Consider `Cc1ccccc1-c1ccc(S(=O)(=O)N(C)[C@H](C)CS)cc1` [Example 122], for which the values for the IC50 at recombinant human MMP-1 and on recombinant human MMP-13 were more than 10 µM and 4.25 µM, respectively.

Turning to `COc1cccc(-c2ccc(S(=O)(=O)N(C)[C@H](C)CS)cc2)c1` [Example 123], the 50% inhibitory concentration (IC50) at recombinant human MMP-1 is more than 10 µM; on recombinant human MMP-13 it was 0.115 µM.

In the case of `COc1ccc(-c2ccc(S(=O)(=O)N(C)[C@H](C)CS)cc2)cc1` [Example 124], the IC50 at recombinant human MMP-1 was 2.1 µM; on recombinant human MMP-13 it was less than 0.0005 µM.

As to `C[C@H](CS)N(C)S(=O)(=O)c1ccc(-c2cccc(C(F)(F)F)c2)cc1` [Example 125], the IC50 is more than 10 µM at recombinant human MMP-1 and 0.77 µM on recombinant human MMP-13.

Turning to `CC(C)Oc1ccc(-c2ccc(S(=O)(=O)N(CCN3CCOCC3)[C@@H](CS)C(N)=O)cc2)cc1` [Example 126], the IC50 on recombinant human MMP-1 is more than 0.1 µM; on recombinant human MMP-13 it was 0.0035 µM.

`CCCCCc1ccc(S(=O)(=O)N(CCN2CCOCC2)[C@@H](CS)C(N)=O)cc1` [Example 128]: the results for the IC50 on recombinant human MMP-1 and at recombinant human MMP-13 were 5 µM and 0.0011 µM, respectively.

On to `COc1ccc(S(=O)(=O)N(C)CCc2ccccc2S)cc1` [Example 130], for which the IC50 at recombinant human MMP-1 was more than 10 µM; on recombinant human MMP-13, 3.3 µM.

Consider `COc1ccc(-c2ccc(S(=O)(=O)N(CCN3CCOCC3)[C@@H](CS)C(N)=O)cc2)cc1` [Example 131], for which the half-maximal inhibitory concentration (IC50) was 0.07 µM at recombinant human MMP-1 and less than 0.0001 µM on recombinant human MMP-13.

`C[C@H](CSC(=O)c1cccs1)N(CCN1CCOCC1)S(=O)(=O)c1ccc(Sc2ccccc2)cc1` [Example 132]: the figures for the IC50 on recombinant human MMP-1 and at recombinant human MMP-13 were more than 10 µM and 0.047 µM, respectively.

Take `C[C@H](CSC(=O)C(C)(C)C)N(CCN1CCOCC1)S(=O)(=O)c1ccc(Sc2ccccc2)cc1` [Example 133]: the half-maximal inhibitory concentration (IC50) is more than 10 µM at recombinant human MMP-1 and 4.2 µM at recombinant human MMP-13.

On to `C[C@H](CS)NS(=O)(=O)c1ccc(S(C)(=O)=O)cc1` [Example 147], for which the IC50 is less than 10 µM at recombinant human MMP-1 and more than 10 µM on recombinant human MMP-13.

Regarding `C[C@H](CS)NS(=O)(=O)c1ccc(Cc2ncc(C(F)(F)F)cc2Cl)s1` [Example 155], the concentration for half-maximal inhibition (IC50) on recombinant human MMP-1 and at recombinant human MMP-13 was more than 10 µM throughout.

As usually defined, the IC50 is the concentration needed to halve the response being measured.
